The text below walks through data of paper PMC11173422, “Substitution-Induced Mechanistic Switching in SNAr-Warheads for Cysteine Proteases” (Molecules, 2024).

One data set concerns the target T1, Rhodesain (TbCatL) (Trypanosoma brucei rhodesiense, UniProt Q95PM0).
T1 construct: stably transformed with the rhodesain ΔC gene cloned into the pPICZαA vector; made in house; host or cells: Pichia pastoris X-33 (pPICZαA, secreted into the culture supernatant)
The data set is described as follows: Fluorimetric rhodesain inhibition assay with Z-Phe-Arg-AMC. The format is biochemical. The settings on record: for Mode of inhibition (time dependency, reversibility): from progress curves; for Inhibition of rhodesain, in words: SAR discussion. As for the experimental part:
Inhibition of rhodesain was assessed using Z-Phe-Arg-AMC as a fluorogenic substrate. IC50 or KI^app were determined depending on the time dependency of the progress curves. Because a competitive mode of inhibition can be assumed, Ki (for reversible inhibition) and KI (for irreversible inhibition) were calculated using the Cheng–Prusoff equation [30].
Fluorimetric enzyme assays were performed as described in the literature. Information regarding buffers, concentrations, the employed substrate, as well as data analysis for linear and non-linear regression is given in the SI. In short, the cleavage of a fluorogenic substrate by the protease of interest is detected in the presence of different concentrations of inhibitors. […] For the irreversible compound with non-linear regression, the kinetic kinact value was also plotted, from which k2nd was calculated.
To investigate this influence, its inhibition of […]
nucleophilic reducing agent for enzyme activation).
Reversibility assessment for time-dependent inhibitor 9
After this incubation period, the samples
Rhodesain, CatL, CatB Assays
Continuous fluorometric measurements with a Tecan Spark 10M reader in a 96 well plate format was used to evaluate activity. Rhodesain, HsCatB and HsCatL were diluted in their respective activation buffer prior to use. Rhodesain was incubated in this for 30–60 min prior to use. The enzyme of interest (5 µL) was incubated with the inhibitor in question (10 µL), and its specific substrate (5 µL) in the respective assay buffer. The fluorescence signal was measured every 30 s for 10 min at room temperature with the corresponding excitation/emission wavelengths (λex = 380 nm / λem = 460 nm). The final concentrations and buffer compositions are depicted in SI-Table S1. Inner-filter effect corrections were performed as described in literature if deviations >5% were detected.
SI-Table S1: Information on assay conditions. [E] = final enzyme concentration, [S] = final substrate concentration in well.
For the evaluation of 9 in absence of DTT (depicted in SI-Figure S5): 5 nM final rhodesain concentration that was activated before in presence of TCEP (alternative activation buffer: 5 mM DTT → 5 mM TCEP) […]
Time-independent behavior
For inhibitors that behaved time-independently during the measurements (i.e., F-t-diagrams show constant slope), IC50 values using defined dilution series for each compound were calculated with GraphPad PRISM by fitting the remaining enzymatic activity to a four parameter IC50 equation with Y [%] as the residual enzyme activity, Ymax as the maximum value of the dose response curve at inhibitor concentrations [I] = 0 µM, Ymin as the minimum value at high inhibitor concentrations and s as the Hill […]
y [%residual activity]=௬ౣ౗౮ ି௬ౣ౟౤ೞ + y୫୧୬ eq. 1
It is assumed that the inhibitors bind competitively in respect to the substrate. Due to the dependence of the IC50 value on the substrate affinity and concentration, the Ki values were calculated with the Cheng-Prusoff equation, using the final substrate concentration [S] and the Michaelis-Menten constant KM to […]
For inhibitors that behaved time-dependently during the measurements (i.e., F-t-diagrams show reducing slopes over time), KIapp and kinact values using defined dilution series for each compound were calculated

A short description of data set [1]: Stability towards general substitution reactions (water, DTT). The data set is classed as physicochemical. The note with it: NH4OAc buffer pH 5.5, with or without DTT; UV spectra and LCMS. As for the experimental part: 0.1 inhibitor concentration
SI-Figure S1: (A) Absorption spectra of 2, 3 and 9 with different concentrations, visualizing a potential need for mathematical correction at high concentrations for nitroanilines. ( B) Experimental proof that mathematical correction of attenuation of AMC fluorescence is only necessary for inhibitor concentrations ≥10 µM. For 2 and 3 at 10 µM attenuation of fluorescence signal is 14 and 11 %, respectively. At concentrations relevant for IC50 evaluation, no relevant interference is detected.
Stability measurements towards general substitution reactions
2, 3 and 9 (from 20 mM stock solutions in DMSO) were diluted into NH4OAc buffer (pH 5.5) to final concentrations of 100 µM, 125 µM or 1 mM and incubated in buffer alone or in presence of as much DTT as present in the fluorimetric rhodesain assay and the MALDI-TOF experiment, respectively. This was recorded with absorption spectroscopy (results depicted in SI-Figure S2) on a Tecan Spark 10M plate reader in UV-transparent 96-well plates (Greiner UV-Star®, 655801, 200 µL volume per sample) or with LCMS (see “measurement setup for LCMS” as described under the method for PAMPA; results depicted […]
system at pH 5.5 over the course of the time necessary for the employed assays. There is a small difference detectable in reactivity of 3 with 5 mM DTT: a slight but time-dependent change in UV-spectrum was found where the maximum at 265 nm decreased in intensity, indicating a small degree of degradation […]
that is not observed with lower DTT concentration or with 2 at all. The formation takes place on a much larger timescale as the time for detection in the assays (minutes vs. hours) and is therefore irrelevant to the performed evaluations. […]
repeated LCMS analysis indicates the formation of the phenol (substitution of fluoride) over the course of hours. This also seems to happen in the DMSO stock solution to a small degree after some usage (explains the presence of phenol at 0 min). Accordingly, in presence of DTT, both the phenol and the thioether are detected by MS for this compound. […]

Data set [2] addresses T2, rhodesain (Trypanosoma brucei rhodesiense, UniProt Q95PM0). Kind of data set: MALDI-TOF-MS (sinapinic acid matrix) adduct detection. The data set is classed as binding. On the set-up: stably transformed with the rhodesain ΔC gene cloned into the pPICZαA vector; made in house; host or cells: Pichia pastoris X-33 (pPICZαA, secreted into the culture supernatant). The settings on record: 100 µM inhibitor, 10 µM rhodesain, acidic sinapinic acid matrix. On the procedure:
Using MALDI-TOF-MS, differentiation between non-covalent and covalent ligand-target complexes is possible if acidic matrices are used that interfere with ionic and dipole interactions (i.e., suppress non-covalent interactions).
Protein mass spectrometry was performed as described before, but also described in detail in the SI. In short, rhodesain was incubated with a surplus of inhibitor under conditions similar to those of the enzyme assays described above to enable complex formation. This sample was desalted and then incorporated into a sinapinic acid matrix, which was then subjected to mass spectrometry. Data analysis was performed using mMass.
Mass spectrometric experiments were performed as described before. Lyophilized rhodesain was first […]
manufacturer’s instructions.
Then, the mixtures were left in the fume hood for cocrystallization until dry.
TOF/TOF mass spectrometer (Bruker Daltonik GmbH, Bremen, Germany). The instrument is equipped […]
cropping from 22–27 kDa was performed.
Baseline was corrected with standard settings. […]

Data set [3] concerns the target T2, rhodesain. The settings on record: 1.5 h incubation (9: 400 µM; K11777: 500 nM), diluted 1:100, n = 2; uninhibited 0.68 ± 0.05 FU/s.
Procedure: rhodesain was reassessed in DTT-free conditions (tris(2-carboxyethyl)phosphine = TCEP used as a non-
The reactivity towards water should not be seriously
To assess reversibility of the time-dependent inhibitor [4], and to therefore discriminate between slow-
reversible and irreversible inhibition, rhodesain was incubated with compound 9 for 1.5 h, at an inhibitor
concentration of 400 µM (7.5x KI) to enable the quantita tive progression of a covale nt irreversible reaction
if one is possible. The same incubation was performed with DMSO alone as a negative control and in
presence of 500 nM K11777 as a positive irreversible control. After this incubation period, the samples
were diluted 1:100 (to 4 µM of compound 9 (0.075x KI)) into assay buffer containing substrate to record
the degree of recovery of enzymatic activity over the course of 10 min.
Raw activity of rhodesain after dilution was

Like-named read-outs stand apart in the source and are kept apart here.

T2 sequence (Q95PM0 entry or part of it): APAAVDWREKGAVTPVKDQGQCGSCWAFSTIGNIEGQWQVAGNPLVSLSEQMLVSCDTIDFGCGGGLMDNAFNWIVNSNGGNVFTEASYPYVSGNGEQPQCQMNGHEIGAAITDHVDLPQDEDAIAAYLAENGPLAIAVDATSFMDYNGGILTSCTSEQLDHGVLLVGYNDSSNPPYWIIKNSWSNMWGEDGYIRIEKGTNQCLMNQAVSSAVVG
T1 sequence (Q95PM0 entry or part of it): as above

For the compound `CC(C)C[C@H](NC(=O)[C@H](Cc1ccccc1)Nc1ccccc1[N+](=O)[O-])C(=O)O` [Compound 1], at Rhodesain (TbCatL), the Ki was found to be 39 µM.

In the case of `CC(C)C[C@H](NC(=O)[C@H](Cc1ccccc1)Nc1ccc([N+](=O)[O-])c([N+](=O)[O-])c1)C(=O)O` [Compound 2], on Rhodesain (TbCatL), the IC50 stood at 0.0364 ± 0.0023 µM; the Ki was 0.0028 ± 0.0002 µM; the “Mode of inhibition (time dependency, reversibility)” value (from here on “Mode of inhibition”) is reported as “time-independent”. The “Reactivity towards unspecific nucleophiles (water and DTT)” value in data set [1] is on record as “no relevant tendency towards either side reaction”. Moreover, the “Adduct with rhodesain in MALDI-TOF-MS” value on rhodesain [2] is “no adduct was found”.

Regarding `CC(C)C[C@H](NC(=O)[C@H](Cc1ccccc1)Nc1cc(F)c([N+](=O)[O-])cc1[N+](=O)[O-])C(=O)O` [Compound 3], on Rhodesain (TbCatL), the half-maximal inhibitory concentration (IC50) was determined as 0.0245 ± 0.0017 µM; the Ki turned out to be 0.0019 ± 0.0001 µM; the “Mode of inhibition” value is on record as “time-independent”. Besides, the “Reactivity towards unspecific nucleophiles (water and DTT)” value in data set [1] is listed as “no relevant tendency towards either side reaction”. In addition, the “Adduct with rhodesain in MALDI-TOF-MS” value at rhodesain [2] is listed as “an adduct corresponding to the mass of the inhibitor was observed”.

`CC(C)C[C@H](NC(=O)[C@H](Cc1ccccc1)Nc1ccc([N+](=O)[O-])cc1)C(=O)O` [Compound 4] registered a Ki on Rhodesain (TbCatL) of 17 µM.

`CC(C)C[C@H](NC(=O)[C@H](Cc1ccccc1)Nc1cc(F)ccc1[N+](=O)[O-])C(=O)O` [Compound 5]: on Rhodesain (TbCatL), the Ki was determined as 44 µM and the “Inhibition of rhodesain, in words” value is “did not result in inhibition”.

Take `CC(C)C[C@H](NC(=O)[C@H](Cc1ccccc1)Nc1cc(Cl)ncn1)C(=O)O` [Compound 6]: on Rhodesain (TbCatL), the Ki turned out to be 102 µM and the “Inhibition of rhodesain, in words” value is “did not produce an active inhibitor”.

With `CC(C)C[C@H](NC(=O)[C@H](Cc1ccccc1)NC(=O)Nc1ccc(F)c([N+](=O)[O-])c1)C(=O)O` [Compound 7], on Rhodesain (TbCatL), the Ki is 50 µM and the “Inhibition of rhodesain, in words” value is “did not produce an active inhibitor”.

`CC(C)C[C@H](NC(=O)[C@H](Cc1ccccc1)NC(=O)c1ccc(Cl)nc1Cl)C(=O)O` [Compound 8]: on Rhodesain (TbCatL), the Ki is 30 µM and the “Inhibition of rhodesain, in words” value is reported as “did not yield relevant inhibition”.

Regarding `CC(C)C[C@H](NC(=O)[C@H](Cc1ccccc1)NC(=O)c1cccc([N+](=O)[O-])c1F)C(=O)O` [Compound 10], at Rhodesain (TbCatL), the Ki came to 14 µM and the “Inhibition of rhodesain, in words” value is “ineffective”.

Take `CC(C)C[C@H](NC(=O)[C@H](Cc1ccccc1)NC(=O)c1cc([N+](=O)[O-])ccc1F)C(=O)O` [Compound 11]: on Rhodesain (TbCatL), the Ki came out at 13 µM and the “Inhibition of rhodesain, in words” value was “ineffective”.

Take `CC(C)C[C@H](NC(=O)[C@H](Cc1ccccc1)NC(=O)c1cc([N+](=O)[O-])c(Cl)cc1[N+](=O)[O-])C(=O)O` [Compound 12]: at Rhodesain (TbCatL), the Ki was 25 µM and the “Mode of inhibition” value is reported as “abolished the time-dependent mode of inhibition”.

`C[C@H](Nc1cc(F)c([N+](=O)[O-])cc1[N+](=O)[O-])C(=O)N[C@@H](CCc1ccccc1)C(=O)O` [Compound 13]: the Ki on Rhodesain (TbCatL) came out at 13 µM.

On Rhodesain (TbCatL), `C[C@@H](NC(=O)[C@@H](CCc1ccccc1)Nc1cc(F)c([N+](=O)[O-])cc1[N+](=O)[O-])C(=O)O` [Compound 14, ((R)-2-((5-fluoro-2,4-dinitrophenyl)amino)-4-phenylbutanoyl)-D-alanine] showed a Ki of 27 µM.

On Rhodesain (TbCatL), `C[C@@H](Nc1cc(F)c([N+](=O)[O-])cc1[N+](=O)[O-])C(=O)N[C@H](CCc1ccccc1)C(=O)O` [Compound 15] displayed a Ki of 22 µM.

Turning to `C[C@H](NC(=O)[C@H](CCc1ccccc1)Nc1cc(F)c([N+](=O)[O-])cc1[N+](=O)[O-])C(=O)O` [Compound 16], the Ki at Rhodesain (TbCatL) was 13 µM.

On to `O=C(O)[C@H](CCc1ccccc1)NC(=O)[C@H](Cc1ccccc1)Nc1cc(F)c([N+](=O)[O-])cc1[N+](=O)[O-]` [Compound 17], for which the Ki on Rhodesain (TbCatL) worked out at 6 µM.

As to `O=C(O)[C@@H](Cc1ccccc1)NC(=O)[C@@H](CCc1ccccc1)Nc1cc(F)c([N+](=O)[O-])cc1[N+](=O)[O-]` [Compound 18], at Rhodesain (TbCatL), the Ki was found to be 12 µM.

Turning to `CN1CCN(C(=O)N[C@@H](Cc2ccccc2)C(=O)N[C@H](/C=C/S(=O)(=O)c2ccccc2)CCc2ccccc2)CC1` [Compound K11777, reference compound], the “Activity of rhodesain after incubation and subsequent dilution” value at rhodesain [3] was −0.01 ±0.00 FU/s. In addition, the “Adduct with rhodesain in MALDI-TOF-MS” value at rhodesain [2] is recorded as “showed the expected mass shift representative of covalent adduct formation”.

For the compound “N-(5-fluoro-2,4-dinitrobenzoyl)-L-phenylalanyl-L-leucine [Compound 9]”, the Ki at Rhodesain (TbCatL) (DTT-free conditions, TCEP for enzyme activation, read-out: KIapp) came to 200 µM; at Rhodesain (TbCatL) (KI, irreversible time-dependent inhibition, from KI^app by Cheng–Prusoff, read-out: Ki or KI) it was 53 µM; on Rhodesain (TbCatL) (standard conditions with DTT, read-out: KIapp) it was 700 µM. Also, the “Mode of inhibition” value at Rhodesain (TbCatL) was “irreversible”. Besides, the “Reactivity towards unspecific nucleophiles (water and DTT)” value in data set [1] is “relevant reactivity towards unspecific nucleophiles”. The “Activity of rhodesain after incubation and subsequent dilution” value on rhodesain [3] is −0.01 ±0.00 FU/s. On rhodesain [2], the “Adduct with rhodesain in MALDI-TOF-MS” value was “An adduct was also found for 9, albeit with a shift lower than the mass of the inhibitor”.

For orientation: IC50 means the midpoint of a concentration-inhibition curve. Read a high IC50 as weaker potency.
